Test results reported in ChEMBL document CHEMBL6078662, “Discovery of 3-(2-aminobenzo[d]thiazol-5-yl) benzamide derivatives as potent anticancer agents via ROR1 inhibition” (Bioorg Med Chem, 2025).
One block for each compound: values may come before it. Activity calls are given as the source filed them. The calls are words filed in the database; no cut-off is given here.

Key:
A549 = assay: Antiproliferative activity against human A549 cells assessed as inhibition of cell proliferation incubated for 72 hrs by MTT assay; format: functional, cell-based; details: for IC50: A549, 72 h
PC-9 = assay: Antiproliferative activity against human PC-9 cells assessed as inhibition of cell proliferation incubated for 72 hrs by MTT assay; format: functional, cell-based; details: for IC50: PC-9, 72 h
NCI-H1975 [1] = assay: Antiproliferative activity against human NCI-H1975 cells assessed as inhibition of cell proliferation incubated for 72 hrs by MTT assay; format: functional, cell-based; details: for IC50: NCI-H1975, 72 h
[2] = Cytotoxicity against human MRC5 cells assessed as inhibition of cell proliferation incubated for 72 hrs by MTT assay; format: toxicity, cell-based
[3] = Selectivity index, ratio of IC50 for cytotoxicity against human MRC5 cells assessed as inhibition of cell proliferation to IC50 for antiproliferative activity against human NCI-H1975 cells assessed as inhibition of cell proliferation; format: toxicity, cell-based; details: MRC5 cells and NCI-H1975 cells, read-out: Ratio IC50
NCI-H1975 [4] = assay: Inhibition of colony formation in human NCI-H1975 cells assessed as decrease in number of colonies incubated for 72 hrs by crystal violet staining based assay; format: functional, cell-based; details: dose 1.75-7 µM
NCI-H1975 [5] = assay: Antiproliferative activity against human NCI-H1975 cells assessed as suppression of cell growth incubated for 72 hrs by MTT assay; format: functional, cell-based; details: dose 7.0 µM
[6] = target: Inactive tyrosine-protein kinase transmembrane receptor ROR1 (Homo sapiens) (UniProt Q01973); assay: Inhibition of ROR1 phosphorylation in human NCI-H1975 cells upto 7 uM incubated for 48 hrs by Western blot analysis; format: cell-based
Sequence of Inactive tyrosine-protein kinase transmembrane receptor ROR1 (Homo sapiens) (Q01973 whole entry): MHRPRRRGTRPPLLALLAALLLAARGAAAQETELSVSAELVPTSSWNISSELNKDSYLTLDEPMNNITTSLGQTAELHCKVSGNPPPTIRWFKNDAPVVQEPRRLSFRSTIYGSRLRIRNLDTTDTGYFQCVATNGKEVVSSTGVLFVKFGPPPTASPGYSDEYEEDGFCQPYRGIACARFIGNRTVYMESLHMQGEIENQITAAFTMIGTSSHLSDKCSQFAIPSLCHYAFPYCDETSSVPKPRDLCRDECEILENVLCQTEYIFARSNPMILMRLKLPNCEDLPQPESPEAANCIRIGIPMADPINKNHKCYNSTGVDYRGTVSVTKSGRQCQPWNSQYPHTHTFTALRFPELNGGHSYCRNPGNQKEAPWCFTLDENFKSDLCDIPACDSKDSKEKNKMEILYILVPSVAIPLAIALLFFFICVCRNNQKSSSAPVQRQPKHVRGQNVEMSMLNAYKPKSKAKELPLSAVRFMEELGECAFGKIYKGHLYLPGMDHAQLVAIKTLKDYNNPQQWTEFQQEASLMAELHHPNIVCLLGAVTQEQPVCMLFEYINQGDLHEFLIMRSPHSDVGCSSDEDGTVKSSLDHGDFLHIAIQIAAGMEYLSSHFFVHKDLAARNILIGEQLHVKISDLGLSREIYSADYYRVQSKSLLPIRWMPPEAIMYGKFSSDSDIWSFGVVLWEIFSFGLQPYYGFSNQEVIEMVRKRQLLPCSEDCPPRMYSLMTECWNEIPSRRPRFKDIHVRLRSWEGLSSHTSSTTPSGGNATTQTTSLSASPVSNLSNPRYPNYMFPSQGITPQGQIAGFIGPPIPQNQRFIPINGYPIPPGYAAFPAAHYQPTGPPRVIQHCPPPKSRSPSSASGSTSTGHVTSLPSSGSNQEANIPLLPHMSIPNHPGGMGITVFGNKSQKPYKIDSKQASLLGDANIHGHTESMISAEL

NCI-H1975 [7] = assay: Inhibition of SRC phosphorylation in human NCI-H1975 cells upto 7 uM incubated for 48 hrs by Western blot analysis; format: cell-based
[8] = target: MAP kinase p38 (Homo sapiens) (UniProt O15264+Q15759+Q16539+P53778); assay: Inhibition of p38 phosphorylation in human NCI-H1975 cells upto 7 uM incubated for 48 hrs by Western blot analysis; format: cell-based
[9] = target: Inactive tyrosine-protein kinase transmembrane receptor ROR1 (Homo sapiens) (UniProt Q01973); assay: Binding affinity to ROR1 in human NCI-H1975 cells assessed as increase in thermal stability at 10 uM at 57 to 62 degreeC incubated for 4 hrs by CETSA analysis; format: cell-based
[10] = target: Inactive tyrosine-protein kinase transmembrane receptor ROR1 (Homo sapiens) (UniProt Q01973); assay: Binding affinity to ROR1 in human NCI-H1975 cells assessed as protection of pronase-mediated protein degradation preincubated with compound for 1 hr followed by pronase E addition and measured after 10 mins by DARTS assay; format: cell-based; details: dose <= 100.0 µM, time 70.0 min
NCI-H1975 [11] = assay: Inhibition of cell migration in human NCI-H1975 cells assessed as inhibition of wound closure at 1.75 to 7 uM measured at 24 to 48 hrs by wound healing assay; format: functional, cell-based; details: dose 1.75-7 µM, time 24-48 hrs
NCI-H1975 [12] = assay: Inhibition of cell migration in human NCI-H1975 cells assessed as inhibition of wound closure measured at 24 to 48 hrs by wound healing assay; format: functional, cell-based; details: dose 1.75-7 µM, time 24-48 hrs
NCI-H1975 [13] = assay: Inhibition of cell migration in human NCI-H1975 cells assessed as inhibition of wound closure at 1.75 to 7 uM by wound healing assay; format: functional, cell-based; details: dose 1.75-7 µM, time 24-48 hrs
NCI-H1975 [14] = assay: Anti-invasive activity against human NCI-H1975 cells assessed as reduction in number of invaded cells at 7 uM incubated for 24 hrs by crystal violet staining based light microscopic analysis; format: functional, cell-based
NCI-H1975 [15] = assay: Effect on MMP2 expression level in human NCI-H1975 cells incubated for 48 hrs by Western blot analysis; format: functional, cell-based; details: dose <= 7.0 µM
NCI-H1975 [16] = assay: Effect on ZEB1 expression level in human NCI-H1975 cells incubated for 48 hrs by Western blot analysis; format: functional, cell-based; details: dose <= 7.0 µM
NCI-H1975 [17] = assay: Effect on Vimentin expression level in human NCI-H1975 cells incubated for 48 hrs by Western blot analysis; format: functional, cell-based; details: dose <= 7.0 µM
NCI-H1975 [18] = assay: Effect on N-cadherin expression level in human NCI-H1975 cells incubated for 48 hrs by Western blot analysis; format: functional, cell-based; details: dose <= 7.0 µM
NCI-H1975 [19] = assay: Effect on E-cadherin expression level in human NCI-H1975 cells incubated for 48 hrs by Western blot analysis; format: functional, cell-based; details: dose <= 7.0 µM
NCI-H1975 [20] = assay: Induction of cell cycle arrest in human NCI-H1975 cells assessed as accumulation of cells at G1 phase incubated for 24 hrs by PI staining based flow cytometry analysis; format: functional; details: dose 1.75-7 µM
NCI-H1975 [21] = assay: Induction of cell cycle arrest in human NCI-H1975 cells assessed as decrease in accumulation of cells at G2/M phase incubated for 24 hrs by PI staining based flow cytometry analysis; format: functional; details: dose 1.75-7 µM
NCI-H1975 [22] = assay: Induction of cell cycle arrest in human NCI-H1975 cells assessed as reduction in cyclin-D1 expression incubated for 24 hrs by Western blot analysis; format: functional, cell-based; details: dose 1.75-7 µM
NCI-H1975 [23] = assay: Induction of cell cycle arrest in human NCI-H1975 cells assessed as reduction in c-Myc expression incubated for 24 hrs by Western blot analysis; format: functional, cell-based; details: dose 1.75-7 µM
NCI-H1975 [24] = assay: Induction of cell cycle arrest in human NCI-H1975 cells assessed as reduction in CDK2 expression incubated for 24 hrs by Western blot analysis; format: functional, cell-based; details: dose 1.75-7 µM
[25] = Half life in male Sprague-Dawley rat at 10 mg/kg, po measured upto 24 hrs by LC-MS/MS analysis; format: ADME, organism-based; details: in vivo
[26] = Tmax in male Sprague-Dawley rat at 10 mg/kg, po measured upto 24 hrs by LC-MS/MS analysis; format: ADME, organism-based; details: in vivo
[27] = Cmax in male Sprague-Dawley rat at 10 mg/kg, po measured upto 24 hrs by LC-MS/MS analysis; format: ADME, organism-based; details: in vivo
[28] = AUC (0 to infinity) in male Sprague-Dawley rat at 10 mg/kg, po measured upto 24 hrs by LC-MS/MS analysis; format: ADME, organism-based; details: in vivo
[29] = MRT (0 to infinity) in male Sprague-Dawley rat at 10 mg/kg, po measured upto 24 hrs by LC-MS/MS analysis; format: ADME, organism-based; details: in vivo

- IC50 (A549): > 40 µM
- IC50 (PC-9): 13.9 µM
- IC50 (NCI-H1975 [1]): 4.4 µM
Structure (SMILES): CC(C)CCNC(=O)c1cccc(-c2ccc3sc(NC(=O)C(C)(C)C)nc3c2)c1
- IC50 at 72 h [2]: > 80 µM
- selectivity ratio [3]: > 18.2

- IC50 (A549): > 40 µM
- IC50 (PC-9): > 40 µM
- IC50 (NCI-H1975 [1]): > 40 µM
Structure (SMILES): CC(=O)Nc1nc2cc(-c3cccc(C(=O)NCC4CC4)c3)ccc2s1
- IC50 at 72 h [2]: > 80 µM

- IC50 (A549): > 40 µM
- IC50 (PC-9): > 40 µM
- IC50 (NCI-H1975 [1]): > 40 µM
Structure (SMILES): COCCNC(=O)c1cccc(-c2ccc3sc(NC(C)=O)nc3c2)c1
- IC50 at 72 h [2]: > 80 µM

- IC50 (A549): > 40 µM
- IC50 (PC-9): > 40 µM
- IC50 (NCI-H1975 [1]): 11.1 µM
Structure (SMILES): COCCNC(=O)c1cccc(-c2ccc3sc(NC(=O)C(C)(C)C)nc3c2)c1
- IC50 at 72 h [2]: > 80 µM
- selectivity ratio [3]: > 7.23

- IC50 (A549): 18.2 µM
- IC50 (PC-9): 8.11 µM
- IC50 (NCI-H1975 [1]): 3.5 µM
- inhibition [6]: Active
- inhibition [8]: Active
- Activity [9]: Active
- Activity [10]: Dose-dependent-effect
- half-life [25]: 10 h
- Tmax [26]: 2 h
- Cmax [27]: 1120 ng/mL
- AUC(0-inf) [28]: 12400 ng·h/mL
- MRT inf [29]: 18.7 h
Structure (SMILES): CC(C)CCNC(=O)c1cccc(-c2ccc3sc(NC(=O)c4ccc(F)cc4)nc3c2)c1
- Activity (A549; dose <= 40.0 µM): Dose-dependent-effect
- Activity (PC-9; dose <= 40.0 µM): Dose-dependent-effect
- Activity (NCI-H1975 [1]; dose <= 40.0 µM): Dose-dependent-effect
- IC50 at 72 h [2]: > 80 µM
- selectivity ratio [3]: > 22.9
- inhibition (NCI-H1975 [4]): Dose-dependent-effect
- Activity (NCI-H1975 [5]): Dose-dependent-effect
- inhibition (NCI-H1975 [7]): Active
- inhibition (NCI-H1975 [11]): Active
- inhibition (NCI-H1975 [12]): Dose-dependent-effect
- inhibition (NCI-H1975 [13]): Time-dependent-effect
- Activity (NCI-H1975 [14]): Active
- Activity (NCI-H1975 [15]): Dose-dependent-effect
- Activity (NCI-H1975 [16]): Dose-dependent-effect
- Activity (NCI-H1975 [17]): Dose-dependent-effect
- Activity (NCI-H1975 [18]): Dose-dependent-effect
- Activity (NCI-H1975 [19]): Dose-dependent-effect
- Activity (NCI-H1975 [20]): Dose-dependent-effect
- Activity (NCI-H1975 [21]): Dose-dependent-effect
- Activity (NCI-H1975 [22]): Dose-dependent-effect
- Activity (NCI-H1975 [23]): Dose-dependent-effect
- Activity (NCI-H1975 [24]): Dose-dependent-effect

- IC50 (A549): > 40 µM
- IC50 (PC-9): 10.4 µM
- IC50 (NCI-H1975 [1]): 6.06 µM
Structure (SMILES): COCOc1cc(OCOC)c2c(c1)O[C@@H](c1ccc(OC)cc1)CC2=O
- IC50 at 72 h [2]: > 80 µM
- selectivity ratio [3]: > 13.2

- IC50 (A549): > 40 µM
- IC50 (PC-9): > 40 µM
- IC50 (NCI-H1975 [1]): > 40 µM
Structure (SMILES): CCCC(=O)Nc1nc2cc(-c3cccc(C(=O)NCCOC)c3)ccc2s1
- IC50 at 72 h [2]: > 80 µM

- IC50 (A549): > 40 µM
- IC50 (PC-9): > 40 µM
- IC50 (NCI-H1975 [1]): 12.3 µM
Structure (SMILES): COc1ccc(CNC(=O)c2cccc(-c3ccc4sc(NC(=O)C(C)(C)C)nc4c3)c2)cc1
- IC50 at 72 h [2]: > 80 µM
- selectivity ratio [3]: > 6.52

- IC50 (A549): > 40 µM
- IC50 (PC-9): > 40 µM
- IC50 (NCI-H1975 [1]): > 40 µM
Structure (SMILES): CCC(=O)Nc1nc2cc(-c3cccc(C(=O)NCCOC)c3)ccc2s1
- IC50 at 72 h [2]: > 80 µM

- IC50 (A549): 0.83 µM
- IC50 (PC-9): 0.91 µM
- IC50 (NCI-H1975 [1]): 1.02 µM
Structure (SMILES): CC(=O)Nc1nc2cc(-c3ccc4ncn(Cc5ccccc5)c(=O)c4c3)ccc2[nH]1
- IC50 at 72 h [2]: 1.87 µM
- selectivity ratio [3]: 1.83
